Assay [1] can be described thus: Single channel recordings of synthetic channel proteins in lipid bilayers. Particulars: for formation of ionic channels in lipid bilayers: single channel recordings in lipid bilayers. As to the method:
Using established recording, filtering, digitizing and data processing techniques, single channel recording were made of single channel recordings for tethered tetrameric M2δ proteins and free M2δ proteins (FIGS. 7 and 8 respectively). Conductance (V) and lifetime (T) values were determined from a multiplicity of events, and single channel open and closed lifetimes were discriminated using a published pattern recognition algorithm.
These recordings were made in symmetric 0.5M KCl (pH 7.4) and recorded at 100 mV. […] These were recorded at 0.5M NaCl (pH 7.2) and 100 mV.
Planar lipid bilayers into which the synthetic ion protein channels can be incorporated are prepared using commonly available and well understood lipids and bilayer formation techniques. For example, planar bilayers can be formed by hydrophobic apposition of two lipid monolayers initially formed at an air-water interface. The electrical properties of such protein-free bilayers can be examined using known techniques. Peptides can be incorporated into the bilayers from mixed lipid-peptide monolayers.

Assay [2] has as its target T1, tetrameric M2δ synthetic porin (Tetronarce californica, UniProt P02718).
T1 construct: multi-functional carrier template (peptide backbone of at least seven amino acids with four basic attachment residues); made in house; host or cells: chemical peptide synthesis (no expression host)
Description: Block of tetrameric M2δ synthetic porin by a local anaesthetic derivative, single channel recordings. The class given is biochemical, Torpedo californica. Particulars: 25 μM QX-222. As to the method: Furthermore, the pharmacological specificity of the pure structure generated by the tetrameric M2δ synthetic porin was examined by using a quaternary derivative (QX-222) of the local anaesthetic lidocaine. QX-222 is known to transiently block the flow of current through the AChR channel, thereby reducing the channel open lifetime. FIGS. 9A and […] show comparative single channel recordings of this synthetic porin before (FIG. 9A) and after (FIG. 9B) addition of 25 μM QX-222. The result is that the characteristic brief and long open lifetimes exist prior to application of the anaesthetic, as previously shown in FIG. 7.

Several values for one entry are separate records, joined by “and”; a condition that tells them apart may be missing. Equal entries are not always repeated. Entries after “also recorded” stand apart in the source; their conditions may differ.

The source of these data is patent US5368712A, “Biologically mimetic synthetic ion channel transducers” (Synporin Technologies, Inc., priority 1990, dated 1994).

For the molecule “9 amino acid backbone used as template: nine-residue carrier template K K K P G K E K G without attached oligopeptides (KKKPGKEKG)”, the “formation of ionic channels in lipid bilayers” value in assay [1] is listed as “showed similar activity”.

On to `Cc1cccc(C)c1NC(=O)C[N+](C)(C)C` [QX-222], for which, in assay [2], the “effect on channel open time” value is reported as “drastically shortened” and the “effect on single channel conductance V” value is “virutally unaffected”.

As for “EKMSTAISVLLAQAVFLLLTSQR [free (monomeric) M2δ, untethered 23-mer synthetic peptide mimicking the acetylcholine receptor M2δ subunit]”, in assay [1] (0.5M NaCl (pH 7.2), 100 mV), the “single channel conductance V of distinct events” value is 20 pS and 40 pS. Further, in assay [1], the “formation of ionic channels in lipid bilayers” value was “form discrete ion channels in lipid bilayers; also recorded: forms channels of heterogeneous amplitudes and open lifetimes”.

For the molecule “XPDWNWLDFTVITFAYVTEFVDL [22-residue synthetic peptide that mimics the electrical properties of a voltage dependent sodium channel]”, in assay [1], the “selectivity cations versus anions” value is “discriminates cations over anions”; the “selectivity sodium ion versus potassium ion” value was “nonselective between sodium ion and potassium ion”; the “single channel open and close lifetimes” value was “in the millisecond time range”; the voltage dependence entry is reported as “no specific voltage dependence”. For the same molecule, the “single channel conductance of the most frequent event” value in assay [1] (0.5M sodium chloride) was 20 pS.
